Measurements from US10124004B2, “Pyrido[3,4-d]pyrimidine derivative and pharmaceutically acceptable salt thereof” (Teijin Pharma Limited, priority 2015, dated 2018).

Tests used:
[1] = target: T1, CDK4/cyclin D3 (Homo sapiens, UniProt P11802); test: Human CDK4/cyclin D3 inhibitory activity (QS S Assist CDK4/Cyclin D3_FP Kit, IMAP fluorescence polarization); format: biochemical; conditions: 50% inhibitory concentration against CDK4/cyclin D3, given as class symbol
T1 construct: purchased Carna Biosciences, Inc. QS S Assist CDK4/Cyclin D3_FP Kit
T1 sequence (P11802 whole entry): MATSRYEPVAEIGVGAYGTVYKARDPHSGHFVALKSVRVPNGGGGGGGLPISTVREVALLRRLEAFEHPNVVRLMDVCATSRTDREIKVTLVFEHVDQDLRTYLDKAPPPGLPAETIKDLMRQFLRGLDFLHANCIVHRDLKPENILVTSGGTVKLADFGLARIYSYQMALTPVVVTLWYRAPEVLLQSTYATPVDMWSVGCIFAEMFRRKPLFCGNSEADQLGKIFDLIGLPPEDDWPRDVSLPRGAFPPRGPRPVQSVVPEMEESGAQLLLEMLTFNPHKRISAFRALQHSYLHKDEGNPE
T1 sequence (P30281 whole entry partner): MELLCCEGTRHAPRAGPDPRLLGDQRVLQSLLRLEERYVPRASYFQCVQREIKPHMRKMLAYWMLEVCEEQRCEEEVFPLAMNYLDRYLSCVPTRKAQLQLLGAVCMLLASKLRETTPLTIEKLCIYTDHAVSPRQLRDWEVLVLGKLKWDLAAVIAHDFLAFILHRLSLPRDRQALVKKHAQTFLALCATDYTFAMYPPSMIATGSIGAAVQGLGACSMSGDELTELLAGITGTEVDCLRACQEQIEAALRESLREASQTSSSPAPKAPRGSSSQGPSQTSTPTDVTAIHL
Procedure, shortened: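 IMAP fluorescence polarization kit: CDK4/cyclin D3 at 12.5-25 ng/well with kit ATP/substrate/metal mix in 20 mM HEPES pH 7.4, 0.01% Tween20, 2 mM DTT, 45 min at room temperature. FP read at 485/535 nm after 30 min binding; IC50 from dose-response fit of percent inhibition versus enzyme and no-enzyme controls.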

[2] = target: T2, CDK2/cyclin A2 (Homo sapiens, UniProt P24941); test: Human CDK2/cyclin A2 inhibitory activity (QS S Assist CDK2/Cyclin A2_FP Kit, IMAP fluorescence polarization); format: biochemical; conditions: 50% inhibitory concentration against CDK2/cyclin A2, given as class symbol
T2 construct: purchased Carna Biosciences, Inc. QS S Assist CDK2/Cyclin A2_FP Kit
Procedure, shortened: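 Kinase activity read as fluorescence polarization (485/535 nm) after phosphorylated fluorescent substrate binds IMAP reagent (30 min, RT, dark). Enzyme (2.5 ng/well) reacted 60 min at RT with ATP/substrate/metal in HEPES pH 7.4 buffer with Tween 20 and DTT; no-enzyme wells define 0% activity; IC50 by curve fit.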

Row | Structure (SMILES) | IC50 [1] | IC50 [2]
1 | C[C@@H](O)c1cc2cnc(Nc3ccc(C4CCN(CC(=O)O)CC4)cn3)nc2c(NC(C)(C)C)n1 [Compound 830] | < 10 nM | ≥ 100 nM
2 | CC(C)Nc1nc([C@@H](C)O)cc2cnc(Nc3ccc(N4CCN(CC(=O)O)CC4=O)cn3)nc12 [Compound 833] | < 10 nM | ≥ 100 nM
3 | C[C@@H](O)c1cc2cnc(Nc3ccc(C4CCN(C(C)(C)C(=O)O)CC4)cn3)nc2c(NC(C)(C)C)n1 [Compound 834] | < 10 nM | ≥ 100 nM
4 | CC(C)Nc1nc([C@@H](C)O)cc2cnc(Nc3ccc(N4CCCC(C(=O)O)C4)cn3)nc12 (stereo partly shown) [Compound 835] | 10 to 100 nM | ≥ 100 nM
5 | CC(C)Nc1nc([C@@H](C)O)cc2cnc(Nc3ccc(N4CCC(C(=O)O)CC4)cn3)nc12 [Compound 836] | 10 to 100 nM | ≥ 100 nM
6 | C[C@@H](O)c1cc2cnc(Nc3ccc(CN4CCC(C(=O)O)CC4)cn3)nc2c(NC(C)(C)C)n1 [Compound 837] | < 10 nM | 10 to 100 nM
7 | CO[C@H](C)c1cc2cnc(Nc3ccc(NC(=O)C4CCCCN4)cn3)nc2c(NC(C)C)n1 (stereo partly shown) [Compound 838] | < 10 nM | ≥ 100 nM
8 | C[C@H]1CC[C@H](Nc2nc(C(F)F)cc3cnc(Nc4ccc(CN5CCC(C(=O)O)CC5)cn4)nc23)CC1 [Compound 839] | < 10 nM | ≥ 100 nM
9 | O=C1CNCCN1c1ccc(Nc2ncc3c(Cl)c(C(F)F)nc(NCC4CCOCC4)c3n2)nc1 [Compound 840] | ≥ 100 nM | ≥ 100 nM
10 | CC(C)Nc1nc([C@@H](C)O)c(Cl)c2cnc(Nc3ccc(N4CCN(CCO)CCC4=O)cn3)nc12 [Compound 841] | < 10 nM | ≥ 100 nM
11 | CO[C@H](C)c1nc(NC(C)C)c2nc(Nc3ccc(C(=O)N4CCNCC4)cn3)ncc2c1Cl [Compound 842] | 10 to 100 nM | ≥ 100 nM
12 | CCCCNc1nc([C@@H](C)O)cc2cnc(Nc3ccc(CN4CCN(CCO)CC4)cn3)nc12 [Compound 845] | < 10 nM | ≥ 100 nM
13 | CC(C)CNc1nc([C@@H](C)O)cc2cnc(Nc3ccc(CN4CCN(CCO)CC4)cn3)nc12 [Compound 846] | < 10 nM | ≥ 100 nM
14 | C[C@@H](O)c1cc2cnc(Nc3ccc(CN4CCN(CCO)CC4)cn3)nc2c(NCC2CCOCC2)n1 [Compound 847] | < 10 nM | ≥ 100 nM
15 | O=C1CNCCN1c1ccc(Nc2ncc3cc(C(F)F)nc(N[C@H]4CCCOC4)c3n2)nc1 [Compound 849] | < 10 nM | 10 to 100 nM
16 | CC(C)Nc1nc(C(F)F)c(Cl)c2cnc(Nc3ccc(N4CCNCC4=O)cn3)nc12 [Compound 850] | 10 to 100 nM | 10 to 100 nM
17 | Cc1nc(Nc2ncc3c(Cl)c(C(F)F)nc(NC(C)C)c3n2)ccc1N1CCNCC1=O [Compound 851] | 10 to 100 nM | ≥ 100 nM
18 | CCCNc1nc([C@@H](C)OC)cc2cnc(Nc3ccc(CN4CCN(CCO)CC4)cn3)nc12 [Compound 852] | < 10 nM | ≥ 100 nM
19 | CCCCNc1nc([C@@H](C)OC)cc2cnc(Nc3ccc(CN4CCN(CCO)CC4)cn3)nc12 [Compound 853] | < 10 nM | ≥ 100 nM
20 | CCCCNc1nc([C@@H](C)OC)cc2cnc(Nc3ccc(CN4CCNCC4)cn3)nc12 [Compound 854] | < 10 nM | ≥ 100 nM
21 | CCCCNc1nc([C@@H](C)OC)cc2cnc(Nc3ccc(N4CCNCC4)nn3)nc12 [Compound 855] | < 10 nM | ≥ 100 nM
22 | O=C1CNCCN1Cc1ccc(Nc2ncc3cc(C(F)F)nc(N[C@H]4CCCOC4)c3n2)nc1 [Compound 856] | < 10 nM | ≥ 100 nM
23 | CCCNc1nc([C@@H](C)OC)cc2cnc(Nc3ccc(CN4C[C@H]5C[C@@H]4CN5)cn3)nc12 [Compound 857] | < 10 nM | ≥ 100 nM
24 | CCCNc1nc([C@@H](C)OC)cc2cnc(Nc3ccc(N4C[C@H]5C[C@@H]4CN5)nn3)nc12 [Compound 858] | < 10 nM | ≥ 100 nM
25 | CO[C@H](C)c1cc2cnc(Nc3ccc(N4C[C@H]5C[C@@H]4CN5)nn3)nc2c(NC(C)C)n1 [Compound 859] | < 10 nM | ≥ 100 nM

Row | Structure (SMILES) | IC50 [1] | IC50 [2]
26 | CO[C@H](C)c1cc2cnc(Nc3ccc(CN4CCN(CCO)CC4)cn3)nc2c(N[C@H]2CCCOC2)n1 [Compound 860] | < 10 nM | ≥ 100 nM
27 | CO[C@H](C)c1cc2cnc(Nc3ccc(CN4CCNCC4)cn3)nc2c(NCC(C)C)n1 [Compound 861] | < 10 nM | ≥ 100 nM
28 | CO[C@H](C)c1cc2cnc(Nc3ccc(N4CCNCC4)nn3)nc2c(NCC(C)C)n1 [Compound 862] | < 10 nM | ≥ 100 nM
29 | CC(C)Nc1nc([C@@H](C)O)cc2cnc(Nc3ccc(N4CCNCC4C(F)(F)F)nn3)nc12 (stereo partly shown) [Compound 863] | < 10 nM | ≥ 100 nM
30 | CC(C)Nc1nc(C(C)O)cc2cnc(Nc3ccc(OC4CNCCC4F)cn3)nc12 (stereo not shown) [Compound 864] | < 10 nM | ≥ 100 nM
31 | CC(C)Nc1nc([C@@H](C)O)cc2cnc(Nc3ccc(OCCNS(C)(=O)=O)cn3)nc12 [Compound 867] | < 10 nM | ≥ 100 nM
32 | CNCCOc1ccc(Nc2ncc3cc([C@@H](C)O)nc(N(C)[C@H]4CCCOC4)c3n2)nc1 [Compound 868] | < 10 nM | ≥ 100 nM
33 | CC(C)N(C)c1nc([C@@H](C)O)cc2cnc(Nc3ccc(N4CCNCC4=O)cn3)nc12 [Compound 871] | 10 to 100 nM | ≥ 100 nM
34 | C[C@@H](O)c1cc2cnc(Nc3ccc(N4CCNCC4=O)cn3)nc2c(N(C)[C@H]2CCCOC2)n1 [Compound 872] | 10 to 100 nM | ≥ 100 nM
35 | CO[C@H](C)c1cc2cnc(Nc3ccc(OC4CCNCC4)cn3)nc2c(NC2CCOCC2)n1 [Compound 873] | < 10 nM | ≥ 100 nM
36 | CO[C@H](C)c1cc2cnc(Nc3ccc(OC4CCNCC4)cn3)nc2c(N[C@H]2CCCOC2)n1 [Compound 874] | < 10 nM | ≥ 100 nM
37 | CC(C)Nc1nc(C2CCOC2)cc2cnc(Nc3ccc(N4CCNCC4)nn3)nc12 (stereo not shown) [Compound 877] | < 10 nM | ≥ 100 nM
38 | c1cc(N2CCNCC2)nnc1Nc1ncc2cc(C3CCOC3)nc(N[C@H]3CCCOC3)c2n1 (stereo partly shown) [Compound 878] | < 10 nM | ≥ 100 nM
39 | CC1(c2cc3cnc(Nc4ccc(N5CCNCC5)nn4)nc3c(N[C@H]3CCCOC3)n2)COC1 [Compound 880] | < 10 nM | ≥ 100 nM
40 | CC(C)Nc1nc(C2CCOC2)cc2cnc(Nc3ccc(CN4CCNCC4)cn3)nc12 (stereo not shown) [Compound 881] | < 10 nM | ≥ 100 nM
41 | c1cc(Nc2ncc3cc(C4CCOC4)nc(N[C@H]4CCCOC4)c3n2)ncc1CN1CCNCC1 (stereo partly shown) [Compound 882] | < 10 nM | ≥ 100 nM
42 | CC1(c2cc3cnc(Nc4ccc(CN5CCNCC5)cn4)nc3c(N[C@H]3CCCOC3)n2)COC1 [Compound 884] | < 10 nM | ≥ 100 nM
43 | CC(C)Nc1nc(C2CCOC2)cc2cnc(Nc3ccc4c(n3)CCNC4)nc12 (stereo not shown) [Compound 885] | < 10 nM | ≥ 100 nM
44 | c1cc2c(nc1Nc1ncc3cc(C4CCOC4)nc(N[C@H]4CCCOC4)c3n1)CCNC2 (stereo partly shown) [Compound 886] | < 10 nM | ≥ 100 nM
45 | CC(C)Nc1nc(C2(C)COC2)cc2cnc(Nc3ccc4c(n3)CCNC4)nc12 [Compound 887] | < 10 nM | ≥ 100 nM
46 | CC1(c2cc3cnc(Nc4ccc5c(n4)CCNC5)nc3c(N[C@H]3CCCOC3)n2)COC1 [Compound 888] | < 10 nM | ≥ 100 nM
47 | CC(C)Nc1nc(C2CCOC2)cc2cnc(Nc3ccc(N4CCN(CC(=O)O)CC4C(F)(F)F)cn3)nc12 (stereo not shown) [Compound 889] | 10 to 100 nM | ≥ 100 nM
48 | CC(C)Nc1nc(C2(C)COC2)cc2cnc(Nc3ccc(N4CCN(CC(=O)O)CC4C(F)(F)F)cn3)nc12 (stereo not shown) [Compound 890] | 10 to 100 nM | ≥ 100 nM
49 | CO[C@H](C)c1cc2cnc(Nc3ccc(N4CCN(CC(=O)O)CC4C(F)(F)F)cn3)nc2c(NC(C)C)n1 (stereo partly shown) [Compound 891] | 10 to 100 nM | ≥ 100 nM
50 | CC(C)Nc1nc([C@@H](C)O)cc2cnc(Nc3ccc(N4CCN(CC(=O)O)CC4C(F)(F)F)cn3)nc12 (stereo partly shown) [Compound 892] | 10 to 100 nM | ≥ 100 nM
